From ChEMBL document CHEMBL1614632, “Trend analysis of a database of intravenous pharmacokinetic parameters in humans for 670 drug compounds” (Drug Metab Dispos, 2008)

Assays:
[1] = clinical; conditions: human, in vivo, iv
[2] = clinical; conditions: human, in vivo, iv; remark: listed apart in the source
[3] = clinical; conditions: human, in vivo, iv, Vdss
[4] = clinical; conditions: human, in vivo, iv, t1/2
[5] = clinical; conditions: human, in vivo, iv, CL

Compound	fraction unbound [1]	MRT [2]	Vd [3]	half-life [4]	clearance [5]
CC1(C)S[C@@H]2[C@H](NC(=O)C(c3ccccc3)S(=O)(=O)O)C(=O)N2[C@H]1C(=O)O (stereo not given in full) [SULBENICILLIN]	0.5	1.6 h	0.15 L/kg	1.2 h	1.6 mL/min/kg
COc1cc(CC2c3c(cc(OC)c(OC)c3OC)CC[N+]2(C)CCCOC(=O)CCC(=O)OCCC[N+]2(C)CCc3cc(OC)c(OC)c(OC)c3C2Cc2cc(OC)c(OC)c(OC)c2)cc(OC)c1OC (stereo not given) [DOXACURIUM]	0.53	1.4 h	0.22 L/kg	1.7 h	2.7 mL/min/kg
Cc1ccc(-c2ncc(Cl)cc2-c2ccc(S(C)(=O)=O)cc2)cn1 [ETORICOXIB]	0.081	32 h	1.5 L/kg	26 h	0.79 mL/min/kg
Nc1c2c(nc3ccccc13)CCCC2 [TACRINE]	0.25	3.3 h	11 L/kg	3.3 h	56 mL/min/kg
CC(C)NCC(O)c1ccc(O)c(O)c1 (stereo not given) [ISOPROTERENOL]	0.71	0.43 h	1.5 L/kg	0.41 h	56 mL/min/kg
CO/N=C(\C(=O)N[C@@H]1C(=O)N2C(C(=O)O)=C(CSc3nc(=O)c(=O)[nH]n3C)CS[C@H]12)c1csc(N)n1 [CEFTRIAXONE]	0.052	5.4 h	0.085 L/kg	8.6 h	0.26 mL/min/kg
COc1ccc(CC2c3cc(OC)c(OC)cc3CC[N+]2(C)CCC(=O)OCCCCCOC(=O)CC[N+]2(C)CCc3cc(OC)c(OC)cc3C2Cc2ccc(OC)c(OC)c2)cc1OC (stereo not given)	0.52	0.29 h	0.1 L/kg	0.31 h	5.7 mL/min/kg
CCCC(C)C1(CC)C(=O)NC(=S)NC1=O (stereo not given) [THIOPENTAL]	0.14	2.4 h	1.2 L/kg	2 h	8.2 mL/min/kg
NCC[C@H](O)C(=O)N[C@@H]1C[C@H](N)[C@@H](O[C@H]2O[C@H](CN)[C@@H](O)[C@H](O)[C@H]2O)[C@H](O)[C@H]1O[C@H]1O[C@H](CO)[C@@H](O)[C@H](N)[C@H]1O [AMIKACIN]	0.88	2.4 h	0.16 L/kg	2.4 h	1.1 mL/min/kg
C[C@@H]1CC(=O)NN=C1c1ccc(NN=C(C#N)C#N)cc1 [LEVOSIMENDAN]	0.02	1.1 h	0.24 L/kg	1.1 h	3.8 mL/min/kg
C#C[C@]1(O)C=C[C@H]2[C@@H]3CCC4=CC(=O)CC[C@@H]4[C@H]3CC[C@@]21CC [GESTODENE]	0.023	9.6 h	0.46 L/kg	10 h	0.8 mL/min/kg
Nc1ccn([C@@H]2O[C@H](CO)[C@@H](O)C2(F)F)c(=O)n1 [GEMCITABINE]	1	0.81 h	1.5 L/kg	1 h	32 mL/min/kg
O=C1CCc2ccc(OCCCCN3CCN(c4cccc(Cl)c4Cl)CC3)cc2N1 [ARIPIPRAZOLE]	0.01	98 h	4.9 L/kg	75 h	0.83 mL/min/kg
CC1(C)C[C@@H]1C(=O)N/C(=C\CCCCSC[C@H](N)C(=O)O)C(=O)O [CILASTATIN]	0.6	1.1 h	0.15 L/kg	0.86 h	2.3 mL/min/kg
O=C1c2cccc3c2[C@H](CCC3)CN1[C@@H]1CN2CCC1CC2 [PALONOSETRON]	0.38	40 h	6.3 L/kg	39 h	2.6 mL/min/kg
Fc1ccc([C@@H]2CCNC[C@H]2COc2ccc3c(c2)OCO3)cc1 [PAROXETINE]	0.06	17 h	18 L/kg	13 h	18 mL/min/kg
COc1cc(NCc2ccc3nc(N)nc(N)c3c2C)cc(OC)c1OC [TRIMETREXATE]	0.05	17 h	0.77 L/kg	17 h	0.77 mL/min/kg
